From PubChem BioAssay (NCI) come the findings set out here.

“And” between values parts separate entries of the source, which are not always exact repeats. Equal entries are not always repeated.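 Results reflect a 48-hour exposure of cells in 96-well plates to compound at five concentrations. GI50 = concentration required for 50% inhibition of growth. TGI marks complete inhibition of growth.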

Among the test systems are RPMI-8226 leukemia; OVCAR-5 ovarian; M14 melanoma; SW-620 colon; SNB-75 CNS; HCT-15 colon; SK-MEL-5 melanoma; DU-145 prostate; LOX IMVI melanoma; UO-31 renal.
Common to all, as to experiment: inhibition of tumour cell growth, NCI panel, 48 h

On to `O=S(=O)(Nc1ccc(F)cc1F)c1ccc(-c2cnc(C3CC3)o2)cc1`, for which the GI50 is 0.828 µM with RPMI-8226 leukemia; 2.71 µM with OVCAR-5 ovarian; 0.376 µM in the assay on M14 melanoma; 0.395 µM with SW-620 colon; 0.219 µM in the assay on SNB-75 CNS; 0.37 µM with HCT-15 colon. The GI50 is 0.666 µM in the assay on SK-MEL-5 melanoma, 2.09 µM in the assay with DU-145 prostate, 0.588 µM with LOX IMVI melanoma and 1.07 µM with UO-31 renal. Also, the TGI with RPMI-8226 leukemia is 29.8 µM; with OVCAR-5 ovarian it was more than 100 µM; with M14 melanoma, more than 59.9 µM; in the assay on SW-620 colon, more than 100 µM; in the assay on SNB-75 CNS, 1.25 µM; in the assay on HCT-15 colon, 46.7 µM. Besides, the TGI was 12.9 µM with SK-MEL-5 melanoma, more than 100 µM in the assay with DU-145 prostate, 22 µM in the assay on LOX IMVI melanoma and 34.2 µM with UO-31 renal.
Consider `O=C(c1ccc(/C=C/c2n[nH]c3ccccc23)cc1)N1CCNCC1`, for which the GI50 with RPMI-8226 leukemia was 4.21 µM and 10.5 µM; in the assay on OVCAR-5 ovarian, > 10 µM and 2.51 µM; in the assay on M14 melanoma it was 1.66 µM and 3.75 µM; in the assay with SW-620 colon, 1.96 µM and 1.47 µM; with SNB-75 CNS, 3.81 µM and 2.37 µM; in the assay on HCT-15 colon, 1.5 µM and 3.47 µM. Moreover, the GI50 with SK-MEL-5 melanoma is 6.9 µM; in the assay with DU-145 prostate, 5.76 µM and 4.15 µM; in the assay on LOX IMVI melanoma, 1.76 µM and 2.34 µM; in the assay with UO-31 renal it was 2.94 µM and 2.95 µM. The TGI was > 10 µM and 47.3 µM in the assay with RPMI-8226 leukemia; > 10 µM and 26.1 µM in the assay on OVCAR-5 ovarian; 3.22 µM and 16.9 µM in the assay with M14 melanoma; 4.14 µM and 10.8 µM in the assay on SW-620 colon; > 10 µM and 9.14 µM in the assay on SNB-75 CNS; 18.5 µM in the assay with SK-MEL-5 melanoma. The TGI with DU-145 prostate was > 10 µM and 27.5 µM; in the assay with LOX IMVI melanoma it was 3.26 µM and 12.2 µM; in the assay with UO-31 renal it was > 10 µM and 15.1 µM.
Turning to `CCN(Cc1ccccc1C)c1ccc(CO)c(Cl)c1`, the GI50 is 4.04 µM in the assay with RPMI-8226 leukemia; 0.391 µM in the assay with OVCAR-5 ovarian; 15.3 µM with M14 melanoma; 3.74 µM in the assay on SW-620 colon; 9.62 µM in the assay with SNB-75 CNS; 8.57 µM in the assay on HCT-15 colon. In addition, the GI50 is 4.77 µM with SK-MEL-5 melanoma, 16.5 µM in the assay with DU-145 prostate, 17.6 µM in the assay with LOX IMVI melanoma and 12.9 µM with UO-31 renal. Moreover, the TGI in the assay with RPMI-8226 leukemia worked out at 23.5 µM; in the assay with OVCAR-5 ovarian, 1.74 µM; in the assay on M14 melanoma, 31.2 µM; with SW-620 colon, 18.5 µM; in the assay on SNB-75 CNS it was 25 µM; with HCT-15 colon it was 29.3 µM. The TGI in the assay on SK-MEL-5 melanoma amounted to 11.9 µM; in the assay with DU-145 prostate, 35.4 µM; with LOX IMVI melanoma it was 33 µM; with UO-31 renal it was 32.9 µM.
On to `CC(=O)Oc1ccccc1C(=O)Nc1ncc([N+](=O)[O-])s1`, for which the GI50 is 0.677 µM with RPMI-8226 leukemia; 4.07 µM in the assay on OVCAR-5 ovarian; 2.54 µM in the assay on M14 melanoma; 2.76 µM with SW-620 colon; 1.6 µM with SNB-75 CNS; 2.94 µM with HCT-15 colon. Besides, the GI50 in the assay with SK-MEL-5 melanoma is 1.5 µM; in the assay with DU-145 prostate, 4.51 µM; with LOX IMVI melanoma, 2.74 µM; in the assay with UO-31 renal it was 2.16 µM. For the same compound, the TGI was more than 100 µM with RPMI-8226 leukemia; more than 100 µM with OVCAR-5 ovarian; 7.23 µM and 55.9 µM with M14 melanoma; more than 100 µM in the assay with SW-620 colon; 7.13 µM and > 67.9 µM in the assay on SNB-75 CNS; 31.3 µM and > 95 µM in the assay on HCT-15 colon. Further, the TGI in the assay with SK-MEL-5 melanoma is 3.7 µM and 33 µM; in the assay on DU-145 prostate, more than 100 µM; in the assay on LOX IMVI melanoma it was 14.5 µM and > 100 µM.
As for `Cc1cc(C)c(/C=C2\C(=O)Nc3ccc(NC(=O)CCCCCCC(=O)NO)cc32)[nH]1`, the GI50 in the assay on RPMI-8226 leukemia is more than 100 µM; in the assay on OVCAR-5 ovarian, 1.09 µM; in the assay with M14 melanoma, 0.75 µM; in the assay on SW-620 colon, 0.317 µM; in the assay on SNB-75 CNS, 0.227 µM; with HCT-15 colon it was more than 100 µM. The GI50 with SK-MEL-5 melanoma is 0.335 µM; in the assay on DU-145 prostate it was 1.49 µM; with LOX IMVI melanoma, 0.493 µM; with UO-31 renal it was more than 100 µM. The TGI in the assay on RPMI-8226 leukemia was more than 100 µM; with OVCAR-5 ovarian it was more than 54.1 µM; in the assay with M14 melanoma, more than 100 µM; in the assay on SW-620 colon, 36.2 µM; in the assay on SNB-75 CNS, more than 100 µM; in the assay with HCT-15 colon, more than 100 µM. For the same compound, the TGI in the assay with SK-MEL-5 melanoma is 14.7 µM; in the assay on DU-145 prostate it was more than 100 µM; in the assay on LOX IMVI melanoma, 12.9 µM; in the assay with UO-31 renal it was more than 100 µM.
Consider `Cc1nc(-[n+]2nc(-c3ccncc3)nn2-c2ccccc2)sc1C`, for which the TGI in the assay on RPMI-8226 leukemia, with OVCAR-5 ovarian, with M14 melanoma, in the assay on SW-620 colon, in the assay with SNB-75 CNS and in the assay with HCT-15 colon was more than 100 µM in each case. Also, the TGI with SK-MEL-5 melanoma is more than 100 µM; in the assay on DU-145 prostate, more than 100 µM; in the assay on LOX IMVI melanoma it was more than 100 µM; with UO-31 renal, 50.4 µM.
In the case of `CC(C)(S)C(N)C(=O)O` (stereo not drawn), the GI50 in the assay on RPMI-8226 leukemia is 3830 µM; in the assay with OVCAR-5 ovarian, more than 5000 µM; with M14 melanoma, 4370 µM; in the assay with SW-620 colon, 2220 µM; in the assay on SNB-75 CNS, more than 5000 µM; in the assay with HCT-15 colon, 1950 µM. For the same compound, the GI50 in the assay on SK-MEL-5 melanoma is 895 µM; with DU-145 prostate it was 1600 µM; in the assay on LOX IMVI melanoma, 1590 µM; in the assay on UO-31 renal, more than 5000 µM. Moreover, the TGI in the assay with RPMI-8226 leukemia, in the assay on OVCAR-5 ovarian, in the assay on M14 melanoma, with SW-620 colon, in the assay with SNB-75 CNS and with HCT-15 colon was more than 5000 µM throughout. The TGI was 2390 µM and > 100 µM with SK-MEL-5 melanoma; more than 5000 µM with DU-145 prostate; more than 5000 µM with LOX IMVI melanoma; more than 5000 µM in the assay on UO-31 renal.
On to `C#COc1cccc(Nc2c(C#N)cnc3ncc(NC(=O)CCl)cc23)c1`, for which the GI50 in the assay on RPMI-8226 leukemia is more than 62.5 µM; in the assay on OVCAR-5 ovarian, more than 62.5 µM; with M14 melanoma, more than 62.5 µM; in the assay on SW-620 colon, 19.8 µM; in the assay with SNB-75 CNS it was 45.4 µM; in the assay on HCT-15 colon, more than 62.5 µM. The GI50 with SK-MEL-5 melanoma was more than 62.5 µM; in the assay with DU-145 prostate it was 42.1 µM; with LOX IMVI melanoma, 28.8 µM; in the assay on UO-31 renal, 35.1 µM. For the same compound, the TGI with RPMI-8226 leukemia, with OVCAR-5 ovarian, in the assay with M14 melanoma, in the assay with SW-620 colon, with SNB-75 CNS and with HCT-15 colon was more than 62.5 µM in each case. Besides, the TGI in the assay with SK-MEL-5 melanoma, with DU-145 prostate, in the assay with LOX IMVI melanoma and with UO-31 renal was more than 62.5 µM each time.
